Data on 1 compound can be found in patent publication US20210161855A1, “5-LIPOXYGENASE ANTAGONISTS” (INSTITUTO DE MEDICINA MOLECULAR JOÃO LOBO ANTUNES, priority 2017, published 2021).

Experiment [1] concerns the target Phosphodiesterase 5 (PDE5) (Homo sapiens, UniProt O76074). The experiment can be described thus: Phosphodiesterase 5 assay (Cerep). The note with it: 2 μM. The class given is biochemical. The protocol: Phosphodiesterase 5 (PDE5) assay was performed at Cerep, SA (Celle l'Evescault, France) on a fee-for-service basis (Ref 0204^39), as described in Table 2. [table]

The next experiment addresses TRPV1 (Homo sapiens, UniProt Q8NER1). Kind of experiment: TRPV1 channel antagonism, functional assay. The note with it: 150 μM. In kind it is cell-based.
In the next experiment the test system is Escherichia coli K12. The experiment can be described thus: MIC/MBC assay, E. coli. In kind it is cell-based. The note with it: read-out: Minimum bactericidal concentration. How it is done:
Escherichia coli K12 and Staphylococcus aureus ATCC 25923 were grown overnight at 37° C. and re-inoculated in 24-well plates containing 2.5 mL of Luria Bertani medium (LB) to give an optical density of ˜0.01 at 600 nm. Stock solutions of β-lapachone, and lapachol were prepared in DMSO (1% final concentration) and added to the cell suspensions to obtain final concentrations between 5-210 μM. Wells containing a growth control (cell suspensions with 1% DMSO) and a sterile media control were also prepared. The plates were incubated for 18 h at 37° C. and 90 r.p.m. The concentration of compound in the first well in the series that presented no sign of visible growth was reported as the MIC. The OD600 of the cultures was also measured. All the MIC wells were serially diluted in phosphate buffer saline (PBS) and plated onto LB agar plates.

The target in another experiment is T1, purified human 5-LO (Homo sapiens, UniProt P09917).
T1 construct: purchased Abcam ab114310
T1 sequence (P09917 1-674): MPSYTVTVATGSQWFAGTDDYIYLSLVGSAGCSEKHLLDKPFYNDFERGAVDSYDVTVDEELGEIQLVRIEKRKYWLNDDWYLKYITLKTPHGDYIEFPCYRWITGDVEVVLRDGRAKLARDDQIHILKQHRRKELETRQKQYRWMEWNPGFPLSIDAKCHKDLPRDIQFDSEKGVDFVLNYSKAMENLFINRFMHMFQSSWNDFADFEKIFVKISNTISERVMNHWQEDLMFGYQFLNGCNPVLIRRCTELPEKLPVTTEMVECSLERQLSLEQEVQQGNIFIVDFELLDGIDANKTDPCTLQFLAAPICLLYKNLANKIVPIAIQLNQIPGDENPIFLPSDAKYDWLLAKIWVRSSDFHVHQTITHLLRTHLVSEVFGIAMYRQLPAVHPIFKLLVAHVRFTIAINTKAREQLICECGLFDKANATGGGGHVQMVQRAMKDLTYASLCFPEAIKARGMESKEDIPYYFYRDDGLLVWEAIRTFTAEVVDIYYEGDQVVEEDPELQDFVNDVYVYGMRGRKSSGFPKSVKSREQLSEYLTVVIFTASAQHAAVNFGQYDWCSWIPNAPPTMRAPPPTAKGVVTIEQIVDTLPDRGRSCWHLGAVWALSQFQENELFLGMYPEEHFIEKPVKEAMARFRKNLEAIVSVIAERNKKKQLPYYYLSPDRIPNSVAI
Kind of experiment: Intrinsic tryptophan fluorescence. The class given is binding. The note with it: 1 mM dithiothreitol, increasing concentrations. How it is done:
5-Lipoxygenase (Cat No. ab114310, Abcam) was concentrated to 0.5 μM in buffer (50 mM Tris-HCl, pH 8.0, 5 mM CaCl2). […] The final DMSO concentration was kept under 0.1%. Fluorescent measurements were performed using a 1 cm pathlength quartz cuvette. Spectra were collected in an Edinburgh Instruments FLS920 Series Fluorescence Spectrophotometer at 25° C. with fluorescence excitation and scanning emission set to 295 nm and 310 to 450 nm, respectively. All assays were carried out in triplicate.

For experiment [2], the target named is T2, 15-lipoxygenase-2 (15-LO-2) (Homo sapiens, UniProt O15296).
T2 sequence (O15296 1-676): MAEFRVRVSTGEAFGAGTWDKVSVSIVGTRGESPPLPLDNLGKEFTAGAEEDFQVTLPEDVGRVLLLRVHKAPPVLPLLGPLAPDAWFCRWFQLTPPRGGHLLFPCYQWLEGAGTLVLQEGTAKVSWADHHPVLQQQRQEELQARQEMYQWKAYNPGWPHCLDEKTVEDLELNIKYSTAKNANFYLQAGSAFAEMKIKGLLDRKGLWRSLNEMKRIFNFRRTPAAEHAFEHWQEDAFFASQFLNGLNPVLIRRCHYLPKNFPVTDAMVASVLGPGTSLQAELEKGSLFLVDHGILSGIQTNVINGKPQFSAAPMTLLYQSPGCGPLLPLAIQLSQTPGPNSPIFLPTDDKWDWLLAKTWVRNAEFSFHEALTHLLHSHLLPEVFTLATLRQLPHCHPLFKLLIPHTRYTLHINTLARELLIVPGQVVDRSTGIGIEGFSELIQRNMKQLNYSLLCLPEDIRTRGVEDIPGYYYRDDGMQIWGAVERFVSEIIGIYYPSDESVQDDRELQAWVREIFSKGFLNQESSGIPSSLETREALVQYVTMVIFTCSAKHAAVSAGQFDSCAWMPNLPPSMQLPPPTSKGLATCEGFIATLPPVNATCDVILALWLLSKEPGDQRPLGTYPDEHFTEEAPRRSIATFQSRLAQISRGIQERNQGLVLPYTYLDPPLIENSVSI
Kind of experiment: 15-LO-2 inhibition assay, Method A (Cerep). In kind it is biochemical. How it is done:
Method A: 5-Lipoxygenase (5-LO), 12-lipoxygenase (12-LO) and 15-lipoxygenase-2 (15-LO-2) inhibition assays were performed at Cerep, SA (Celle l'Evescault, France) on a fee-for-service basis (Ref 0772^36, 0883^37 and 0893^38, respectively), as described in Table 1.

TRPV1, sequence (Q8NER1 whole entry, species assumed): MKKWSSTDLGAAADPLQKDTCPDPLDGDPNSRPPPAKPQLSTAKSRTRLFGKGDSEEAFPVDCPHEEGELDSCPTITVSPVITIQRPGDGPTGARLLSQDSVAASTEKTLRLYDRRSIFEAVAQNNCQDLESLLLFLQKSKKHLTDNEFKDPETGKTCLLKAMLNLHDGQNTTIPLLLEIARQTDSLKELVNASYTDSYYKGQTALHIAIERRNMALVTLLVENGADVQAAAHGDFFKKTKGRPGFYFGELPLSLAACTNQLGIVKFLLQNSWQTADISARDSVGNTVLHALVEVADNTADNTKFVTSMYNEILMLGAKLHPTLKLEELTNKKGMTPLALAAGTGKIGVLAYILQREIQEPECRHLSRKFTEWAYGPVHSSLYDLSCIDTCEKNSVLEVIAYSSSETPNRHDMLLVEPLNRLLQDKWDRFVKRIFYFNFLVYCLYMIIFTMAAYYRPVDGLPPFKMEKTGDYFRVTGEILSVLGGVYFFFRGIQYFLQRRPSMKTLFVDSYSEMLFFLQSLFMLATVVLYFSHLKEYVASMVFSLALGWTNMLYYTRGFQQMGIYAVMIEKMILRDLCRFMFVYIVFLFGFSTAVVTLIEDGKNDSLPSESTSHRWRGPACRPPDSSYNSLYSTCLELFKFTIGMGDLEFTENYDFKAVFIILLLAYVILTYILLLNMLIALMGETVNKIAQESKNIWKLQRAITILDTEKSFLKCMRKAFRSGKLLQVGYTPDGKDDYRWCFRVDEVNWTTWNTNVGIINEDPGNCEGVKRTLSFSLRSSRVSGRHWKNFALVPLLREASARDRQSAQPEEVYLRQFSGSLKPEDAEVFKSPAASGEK

Consider `CC1(C)CCC2=C(O1)c1ccccc1C(=O)C2=O` [Compound 1, 3,4-dihydro-2,2-dimethyl-2H-naphtho[1,2-b]pyran-5,6-dione], for which the PDE5 screening outcome in experiment [1] is listed as “inactivity”. This compound yielded a TRPV1 antagonist effect at TRPV1 of 63%. Also, the MBC with Escherichia coli K12 is over 200 µM. Also, the Tryptophan fluorescence shift entry on purified human 5-LO is reported as “blue shift”. Further, in experiment [2], the inhibition at 5 µM was -13%.

For orientation: inhibition means the change of the read-out against control, counted positive when it falls.
